A word on the inhibition: it is the change of the read-out against control, counted positive when it falls. Read a low inhibition as a response near the control.

From ChEMBL document CHEMBL1159258, “Identification of the glycosidase inhibitors swainsonine and calystegine B2 in Weir vine (Ipomoea sp. Q6 [aff. calobra]) and correlation with toxicity” (J Nat Prod, 1995) come the findings set out here.

The test system of one assay is Canavalia ensiformis. The experiment in a line: Inhibition of jack bean alpha-mannosidase at 25 to 30 ng/mL by colorimetric assay.
The subject of the next assay is Prunus dulcis. The experiment in a line: Inhibition of almond beta-glucosidase at 0.6 ug/mL by colorimetric assay.
Assay [1] has as its target T1, Alpha-galactosidase (Aspergillus niger) (UniProt Q9Y865).
T1 sequence (whole entry): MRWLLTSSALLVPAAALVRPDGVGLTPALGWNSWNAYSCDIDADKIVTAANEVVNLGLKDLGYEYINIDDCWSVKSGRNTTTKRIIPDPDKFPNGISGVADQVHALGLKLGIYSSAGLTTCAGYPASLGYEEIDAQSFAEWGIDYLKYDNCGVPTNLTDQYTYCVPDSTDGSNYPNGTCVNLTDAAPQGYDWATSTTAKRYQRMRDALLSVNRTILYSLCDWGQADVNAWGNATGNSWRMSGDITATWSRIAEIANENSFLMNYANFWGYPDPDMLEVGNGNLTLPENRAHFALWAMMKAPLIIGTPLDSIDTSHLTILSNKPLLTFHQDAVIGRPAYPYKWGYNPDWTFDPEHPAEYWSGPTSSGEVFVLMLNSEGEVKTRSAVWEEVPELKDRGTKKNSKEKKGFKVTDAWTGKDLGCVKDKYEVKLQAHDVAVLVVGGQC
In words: Inhibition of Aspergillus niger alpha-galactosidase at 1.2 ug/mL by colorimetric assay.

As to `O[C@H]1[C@H]2[C@H](O)CCCN2C[C@H]1O`, the inhibition in the assay on Canavalia ensiformis came out at 50%.

As for `O[C@@H]1[C@@H](O)[C@H](O)[C@]2(O)CC[C@H]1N2`, the inhibition (in the assay on Prunus dulcis; in assay [1]) was 50% in each case.
